Source: US20260226094A1, “STEROL-BASED CATIONIC LIPIDS WITH AROMATIC HEAD GROUPS” (SANOFI, priority 2023, published 2026)

Experiments:
[1] = tested on: mice; assay: Delivery of FFL mRNA by intranasal administration, IVIS luminescent imaging; format: in vivo, mouse; details: lipid nanoparticle with FFL mRNA, dose 10 μg/Animal, 24 hours post dose
Procedure: Lipid nanoparticle formulation 3 listed in Table 1 comprising FFL mRNA, cationic lipid, DMG-PEG2000, cholesterol and DOPE was administered in mice via pipetting the formulations at 10 μg/Animal and 15 μl per nostril. On Day 2, 24 hours post dose (±5%), all animals undergo a luminescent imaging session using IVIS with separate ROIs on the nose and lungs. Whole body imaging are performed 10-15 minutes following D-Luciferin administration. All animals are dosed with 0.2 mL of 15 mg/mL D-luciferin solution via intraperitoneal (IP) injection. Anesthesia performed by isoflurane during the procedure and animals will be placed sternal recumbency (face-down). […]

[2] = tested on: male CD1 mice; assay: Delivery of FFL mRNA by intratracheal administration, IVIS luciferase imaging of the lung; format: in vivo, mouse; details: lipid nanoparticles with FFL mRNA, single intratracheal administration via catheter, about 24 hours post-dose
Procedure: Lipid nanoparticle formulations listed in Table 1 comprising FFL mRNA, cationic lipid, DMG-PEG2000, cholesterol and DOPE were administered to male CD1 mice (6-8 weeks old) by a single intratracheal administration via Catheter® ([…]) while under anesthesia. At approximately 24 hours post-dose, the animals were dosed with luciferin at 150 mg/kg (60 mg/ml) by intraperitoneal injection at 2.5 ml/kg. After 5-15 minutes, all animals were imaged using an IVIS imaging system to measure luciferase production in the lung.

[3] = Lipid degradability by mouse lung S9 in vitro; format: in vitro ADME; details: 2 μM lipid, 2.4 mg/ml lung S9, pH 7.4, 37° C.
Procedure: (§1) Lipid degradability by MOUSE/HUMAN lung S9 in vitro
(§2) Assay format—4 or 5 time points in triplicate.
(§3) • 1) Plan experiment, compounds, and reagents. • 2) Dissolve each lipid in DMSO or IPA to make 5 mM stock, then dilute by IPA to 200 μM work solution. • 3) Thaw mouse and human lung S9. • 4) Prepare pooled incubation mixture as in the reaction formulas below on ice. • 5) Aliquot 495 μL incubation mixture prepared in step #4 to each well of a 2 mL 96-well plate. • 6) Add 5 μL compound to each well to initiate the reaction. Take t0 samples (as in step #8). • 7) Cover the plate with 2 layers of breathable seals and incubate the plate on an orbital shaker at 150 rpm in a 37° C. CO2 incubator. • 8) At each time point, pipette to mix the incubation mixture 5 times, then take 70 μL of incubation mixture to a fresh plate. Store in −20° C. freezer immediately. • 9) Add 210 μL (3× volume) of the cold stop solution to each well of the sample plates collected. Mix at 600 rpm on an orbital shaker for 15 min. • 10) Centrifuge the quenched plates at 3800 rpm for 10 min at 4° C. and transfer supernatant to fresh plates. • 11) Load the supernatant on filter plates and centrifuge again at 3800 rpm for 5 min at 4° C. Collect final samples in fresh plates for LC/MS.
(§4) • 4-5 Time points (hour): e.g. 0, 4, 8, 24, 48 hr • stop solution: 1:1:1 ACN/MeOH/IPA (v/v/v) with propranolol & MC3 as internal standard. Store at 4° C.

[4] = Lipid degradability by human lung S9 in vitro; format: in vitro ADME; details: 2 μM lipid, 2.4 mg/ml lung S9, pH 7.4, 37° C.
Procedure: as §1, §2, §3, §4

| Structure (SMILES) | FFLuc (Avr. Rad.) [1] | in vivo FFL protein production (luciferase activity in the lung, FIG. 5) [2] | In vitro degradation Mouse lung S9 [3] [h] | In vitro degradation Human lung S9 [4] [h] |
| --- | --- | --- | --- | --- |
| COc1cc(C(=O)OCCNC(=N)N)cc(OC)c1OC(=O)CCO[C@H]1CC[C@@]2(C)C(=CC[C@H]3[C@@H]4CC[C@H]([C@H](C)CCCC(C)C)[C@@]4(C)CC[C@@H]32)C1 [Compound III] | 890,880 p/s/cm^2/sr | high levels of in vivo FFL protein production | 50.1 | 39.2 |
| COc1cc(C(=O)OCCCN(C)C)cc(OC)c1OC(=O)CCO[C@H]1CC[C@@]2(C)C(=CC[C@H]3[C@@H]4CC[C@H]([C@H](C)CCCC(C)C)[C@@]4(C)CC[C@@H]32)C1 [Compound II] | 592,290 p/s/cm^2/sr |  | 39.3 | 38.2 |
| COc1cc(C(=O)OCCCNC(=N)N)cc(OC)c1OC(=O)CCO[C@H]1CC[C@@]2(C)C(=CC[C@@H]3C2CC[C@]2(C)[C@@H]([C@H](C)CCCC(C)C)CC[C@@H]32)C1 (some centres unmarked) [Compound IV] | 833,279 p/s/cm^2/sr | high levels of in vivo FFL protein production | 69.6 | 62.9 |
| COc1cc(C(=O)OCCN(C)C)cc(OC)c1OC(=O)CCC(=O)O[C@H]1CC[C@@]2(C)C(=CC[C@H]3[C@@H]4CC[C@H]([C@H](C)CCCC(C)C)[C@@]4(C)CC[C@@H]32)C1 [Compound I] | 421,679 p/s/cm^2/sr |  | 23.6 | 22.2 |
